Several values for one entry are separate records, joined by “and”; a condition that tells them apart may be missing. Equal entries are not always repeated.
Key:
[1] = tested on: hyperlipidemia patients having history of stroke (onset/recurrence of stroke); experiment: DELIS (Japan EPA Lipid Intervention Study) partial analysis: recurrence of stroke over 5 years in patients with history of stroke; format: in vivo, human; set-up: Inhibition Rate (%): concentration or dose not given beside the values; settings: for Incidence rate (%) of EPA-E group: TG less than 400 mg/dL; for Inhibition Rate (%): vs control group; for reduction of the incidence rate of stroke (in words): time course 1 to 5 years
Method: This trial is a partial analysis of the results obtained in DELIS (Japan EPA Lipid Intervention Study), a large scale clinical trial of high purity EPA preparation which was presented at the American College of Cardiology 2005 Annual Meeting.
Specifically, of the 18,645 subject patients in the DELIS trial (hyperlipidemia patients with serum T-Cho concentration of 250 mg/dl or more, at ages of 40 to 75 for male and […] to 75 for female; the patients within six months from the onset of stroke were excluded in order to exclude patients in the acute period of the stroke from the trial subjects) (EPA-E group (9,326 cases) and control group (9,319 cases)), 485 subjects from the EPA-E group and 457 subjects from the control group, having history of stroke (cerebral thrombosis, cerebral embolism, intracerebral hemorrhage, subarachnoid hemorrhage, and transient ischemic attack) were observed and analyzed for the recurrence of stroke during the period of 5 years from the start of the administration. Further, for the cases where serum TG/HDL-C ratio was known (but excluding the cases where TG value was 400 mg/dl or more), results from the subjects divided into three groups based on the serum TG/HDL-C ratio at the time of registration were also analyzed. The EPA-E group was orally administered with Epadel (Mochida Pharmaceutical Co., Ltd.) typically at an adult dose of 600 mg per administration and 3 times a day immediately after the meal. However, in the cases having abnormal serum TG, the dose could be increased up to 900 mg per administration and 3 times a day, depending on the abnormality. In both groups, pravastatin sodium (Mevalotin™ tablets and fine granules, Sankyo Co., Ltd.), simvastatin (Lipovas™ tablets, Banyu Pharmaceutical Co., Ltd.), or atorvastatin calcium hydrate (Lipitor™ tablets, Astellas Pharma Inc. and Pfizer) was used as a base drug (basal treatment), which was orally administered according to a predetermined dosage regimen.
The number of onset (recurrence) of stroke, the incidence rate (%), and the odds ratio for the EPA-E group in relation to the control group during the observation period of 5 years are shown in Table 1. The odds ratio was calculated by the equation of (incidence rate of the EPA-E group)/(incidence rate of the control group), and the inhibition rate of onset of stroke was calculated by the equation of {((incidence rate of stroke for the control group)−(incidence rate of stroke for the EPA-E group))/(incidence rate of stroke for the control group)}×100.
Further, the data described above were statistically analyzed by taking biases in the background (smoking habit, diabetes, etc.) between the groups into consideration.
Similarly, for the cases where serum TG/HDL-C ratio was known (but excluding the cases where TG value was 400 mg/dl or more), each of the three groups of subjects, which are divided based on the serum TG/HDL-C ratio at the time of registration, was analyzed on the number of onset (recurrence) of stroke, the incidence rate (%), and the odds ratio for the EPA-E group in relation to the control group during the observation period of 5 years, as shown in Table 4. The odds ratio was calculated by the equation of (incidence rate of the EPA-E group)/(incidence rate of the control group), and the inhibition rate of onset of stroke was calculated by the equation of {((incidence rate of stroke for the control group)−(incidence rate of stroke for the EPA-E group))/(incidence rate of stroke for the control group)}×100.

[2] = tested on: hyperlipidemia patients (cardiac events); settings: use in combination with statin; large scale clinical trial; cited from earlier work
[3] = after 1 year, serum TG/HDL-C ratio 3.75 or more
[4] = after 2 years, serum TG/HDL-C ratio 3.75 or more
[5] = after 3 years, serum TG/HDL-C ratio 3.75 or more
[6] = after 4 years, serum TG/HDL-C ratio 3.75 or more
[7] = after 5 years, serum TG/HDL-C ratio 3.75 or more
[8] = all patients with history of stroke, 5 years
[9] = cerebral thrombosis, patients with history of stroke, 5 years
[10] = serum TG/HDL-C ratio at registration less than 1, TG less than 400 mg/dl, 5 years
[11] = total of infarction type diseases, patients with history of stroke, 5 years

Structure (SMILES): CC/C=C\C/C=C\C/C=C\C/C=C\C/C=C\CCCC(=O)OCC [EPA-E, ethyl icosapentate]
- Incidence rate (%) in EPA-E group ([1]; after 1 year, all patients with history of stroke, analyzed taking background biases into consideration): 2.1%
- Incidence rate (%) of EPA-E group [1, 3]: 1.5%
- Inhibition Rate (%) [1, 3]: 17%
- Incidence rate (%) in EPA-E group ([1]; after 2 years, all patients with history of stroke, bias-adjusted analysis): 3.6%
- Inhibition Rate (%) ([1]; after 2 years, all patients with history of stroke): 8%
- Incidence rate (%) of EPA-E group [1, 4]: 2.9%
- Inhibition Rate (%) [1, 4]: 53%
- Incidence rate (%) in EPA-E group ([1]; after 3 years, all patients with history of stroke, bias-adjusted analysis): 4.7%
- Inhibition Rate (%) ([1]; after 3 years, all patients with history of stroke): 16%
- Incidence rate (%) of EPA-E group [1, 5]: 4.4%
- Inhibition Rate (%) [1, 5]: 29%
- Incidence rate (%) in EPA-E group ([1]; after 4 years, all patients with history of stroke, bias-adjusted analysis): 5.7%
- Inhibition Rate (%) ([1]; after 4 years, all patients with history of stroke): 35%
- Incidence rate (%) of EPA-E group [1, 6]: 5.2%
- Inhibition Rate (%) [1, 6]: 55%
- Incidence rate (%) in EPA-E group ([1]; after 5 years, all patients with history of stroke, bias-adjusted analysis): 7.4%
- Inhibition Rate (%) ([1]; after 5 years, all patients with history of stroke): 37%
- Incidence rate (%) of EPA-E group [1, 7]: 7.4%
- Inhibition Rate (%) [1, 7]: 48%
- Odds ratio (incidence rate of EPA-E group/incidence rate of control group) [1, 8]: 0.648
- reduction of incidence rate of stroke compared with the control group [1, 8]: about 35%
- Stroke cases/All cases ([1]; all patients with history of stroke, observation period of 5 years, Epadel 600 mg 3 times a day (up to 900 mg) plus statin base drug): 33/485
- reduction of the incidence rate of stroke (in words) ([1]; all patients with history of stroke): significant at 3 years or later after the start of the administration
- Stroke cases/All cases, cerebral thrombosis [1, 9]: 13/485
- incidence rate, cerebral thrombosis [1, 9]: (2.9%)
- number of cases and incidence rates of hemorrhage type diseases vs control group ([1]; hemorrhage type diseases, patients with history of stroke): lower
- reduction of the incidence rate of stroke (in words) ([1]; patients with serum TG/HDL-C ratio 3.75 or more): significant at 3 years or later after the start of the administration
- reduction of incidence rate of stroke compared to the control group ([1]; serum TG/HDL-C ratio 1 or more but less than 3.75, 5 years): about 36%
- reduction of incidence rate of stroke compared to the control group ([1]; serum TG/HDL-C ratio 3.75 or more, 5 years): about 48%
- Odds ratio (incidence rate of EPA-E group/incidence rate of control group) ([1]; serum TG/HDL-C ratio at registration 1 to 3.75, 5 years): 0.640
- Stroke cases/All cases ([1]; serum TG/HDL-C ratio at registration 1 to 3.75, TG less than 400 mg/dl, 5 years): 14/244
- Odds ratio (incidence rate of EPA-E group/incidence rate of control group) ([1]; serum TG/HDL-C ratio at registration 3.75 or more, 5 years): 0.519
- Stroke cases/All cases ([1]; serum TG/HDL-C ratio at registration 3.75 or more, TG less than 400 mg/dl, 5 years): 10/135
- Stroke cases/All cases [1, 10]: no onset of stroke was observed and 0/18
- incidence rate of stroke [1, 10]: (0.0) %
- Stroke cases/All cases, total of infarctions [1, 11]: 28/485
- incidence rate, total of infarctions [1, 11]: (6.20) %
- inhibiting cardiac events [2]: effective

— US9233093B2, “Composition and/or method for preventing recurrence of stroke” (MOCHIDA PHARMACEUTICALS CO., LTD., priority 2006, dated 2016)
